{"source": "patent US10548883B2", "about": "“Benzotriazole-derived α and β-unsaturated amide compound used as TGF-β RI inhibitor” (GENFLEET THERAPEUTICS (SHANGHAI) INC., priority 2016, dated 2020)", "key": {"[1]": {"tested_on": "mouse breast cancer 4T1 cells", "experiment": "Tumor cell metastasis inhibition in BALB/c mouse orthotopic transplantation model of mouse breast cancer 4T1 cells", "type": "in vivo", "details": "75 mg/kg PO once a day × 32", "method": "Fluorescently labeled mouse breast cancer 4T1-Luc cells were expanded in vitro. Before the cells were collected, the mice were anesthetized with intraperitoneal injection of sodium pentobarbital. After anesthetized mice were fixed, the abdominal skin was disinfected with 70% alcohol. 100 uL of phosphate buffer (containing 0.5×10^6 4T1-luc2 cells) was inoculated into the left side of the fourth pair of abdominal mammary fat pads in mice, and the incision was sutured to disinfect the skin. The animals are kept warm with a warm blanket, observed until they wake up and put back in their cages. 0.1 mg/kg buprenorphine for pain relief was subcutaneously injected 30 min before surgery and 6 hours after surgery.\nOn the third day after modeling, the animals were subjected to bioluminescence detection by infrared data imaging, randomly grouped according to the fluorescence values, and administered according to the following experimental protocol, see Table 5.\nTo observe the inhibitory effect of embodiment 1 on tumor growth and metastasis, the experimental endpoint was designed to be 30-35 days after administration, with reference to historical data of the model. At the end of the experiment, the in situ tumor and various organ tissues were dissected, the tumor was weighed, and the fluorescence intensity of each organ was detected by IVIS fluorescence. Growth inhibition of orthotopic tumors can be compared by the weight of the in situ tumor in the experimental endpoint, and the inhibition curve is generated from the tumor volume measurement data twice a week during the experiment. The inhibition of tumor metastasis was determined by the presence or absence of fluorescence detection of each organ and the analysis of relative fluorescence intensity.\nAt the end of the experiment, the tumor weight will be detected and the relative tumor growth rate T/C (%) will be calculated; the tumor volume is calculated as: V=0.5a×b^2, and a and b represent the long and short diameters of the tumor, respectively. At the same time, the lung, liver, spleen, kidney, intestine and left upper limb were stripped, and fluorescence was detected to determine whether there was metastasis and metastasis intensity and ratio.\nThe antitumor effect of the compound was evaluated by the tumor growth inhibition rate TGI (%) or the relative tumor growth rate T/C (%).\nCalculation of TGI (%): TGI (%)=[(1−mean tumor volume at the end of administration of a treatment group−mean tumor volume at the start of administration of the treatment group))/(mean tumor volume at the end of treatment of the solvent control group−mean tumor volume at the start of administration of the solvent control group)]×100%.\nRelative tumor growth rate T/C (%) calculation: T/C(%)=Tt(treatment group)/Ct(control group)×100%, Tt is the average tumor volume at a certain measurement, and Ct takes the same day data.\nThe experimental results were statistically analyzed using one-way ANOVA. If there is a significant difference in F values, multiple comparisons should be made after ANOVA analysis. All data in this experiment were analyzed using SPSS 17.0. A significant difference was considered at p<0.05.\nAt the end of the experiment, each organ tissue was peeled off, and fluorescence imaging and fluorescence intensity value recording were measured by IVIS for 40 sec exposure within 8 min. The fluorescence imaging results of the tested tissues of the 10 animals excised by the maximum and minimum values are shown in Table 6.\nAccording to the experimental end point, the fluorescence intensity of each group of organs was normalized by the control group, and the relative fluorescence intensity ratio of each group of organs was obtained. The ratio reflects the level of metastatic intensity on the corresponding organs."}, "TGF-βRI": {"target": "T1, TGF-βRI (Homo sapiens, UniProt P36897)", "T1 sequence (P36897 34-503)": "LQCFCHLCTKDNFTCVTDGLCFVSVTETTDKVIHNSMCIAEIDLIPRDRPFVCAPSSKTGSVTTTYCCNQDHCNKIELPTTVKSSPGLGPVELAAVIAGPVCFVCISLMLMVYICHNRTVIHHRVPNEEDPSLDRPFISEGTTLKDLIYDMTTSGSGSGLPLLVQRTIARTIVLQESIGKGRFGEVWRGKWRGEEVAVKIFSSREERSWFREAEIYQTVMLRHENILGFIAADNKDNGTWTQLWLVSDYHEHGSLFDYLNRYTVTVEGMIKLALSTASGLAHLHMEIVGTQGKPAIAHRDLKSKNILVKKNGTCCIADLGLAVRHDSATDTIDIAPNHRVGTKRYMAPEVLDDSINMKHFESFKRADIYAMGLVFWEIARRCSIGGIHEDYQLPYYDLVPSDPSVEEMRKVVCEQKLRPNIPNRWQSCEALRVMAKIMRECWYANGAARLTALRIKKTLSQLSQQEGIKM", "experiment": "Test of inhibitory activity of TGFβ-RI in vitro", "type": "biochemical", "details": "10 μM ATP", "method": "i) Test compound: the IC50 was determined by diluting into 10 gradient points with each gradient by three-fold dilution and with a starting concentration of 5 μM.\nii) The IC50 of reference compound LDN193189 was determined by diluting into 10 gradient points with each gradient by three-fold dilution and with a starting concentration of 20 μM.\niii) The reaction system contains 10 μM ATP.\niv) Calculate the IC50 value by curve fitting when the percentage of enzyme activity (compared to the solvent group) is below 65% at the highest concentration of the sample."}, "[2]": {"details": "animals with metastasis/animals in group"}, "[3]": {"details": "average organ fluorescence relative to control group"}}, "note": "pIC50: −log10 of the molar value."}
{"smiles": "Cc1cccc(-c2nn3c(c2-c2ccc4ncnn4c2/C=C/C(N)=O)CCC3)n1", "note": "[Embodiment 1]", "values": [{"measurement": "Inhibition of metastasis of 4T1 (conclusion)", "setting": "[1]", "value": "significantly inhibited the metastasis of 4T1 in liver, spleen, kidney and intestine"}, {"measurement": "Metastasis rate, intestine", "setting": "[1]; [2]", "value": 60, "unit": "%"}, {"measurement": "Metastasis rate, kidney", "setting": "[1]; [2]", "value": 20, "unit": "%"}, {"measurement": "Metastasis rate, liver", "setting": "[1]; [2]", "value": 50, "unit": "%"}, {"measurement": "Metastasis rate, lung", "setting": "[1]; [2]", "value": 100, "unit": "%"}, {"measurement": "Metastasis rate, spleen", "setting": "[1]; [2]", "value": 0, "unit": "%"}, {"measurement": "Metastasis rate, upper limb", "setting": "[1]; [2]", "value": 90, "unit": "%"}, {"measurement": "Metastasis level, intestine", "setting": "[1]; [3]", "value": 1, "unit": "%"}, {"measurement": "Metastasis level, kidney", "setting": "[1]; [3]", "value": 67, "unit": "%"}, {"measurement": "Metastasis level, liver", "setting": "[1]; [3]", "value": 10, "unit": "%"}, {"measurement": "Metastasis level, lung", "setting": "[1]; [3]", "value": 9, "unit": "%"}, {"measurement": "Metastasis level, spleen", "setting": "[1]; [3]", "value": 0, "unit": "%"}, {"measurement": "Metastasis level, upper limb", "setting": "[1]; [3]", "value": 12, "unit": "%"}, {"measurement": "pIC50", "setting": "TGF-βRI", "value": "7.30 to 9.00"}]}
